Results on four compounds are retold here after PubChem BioAssay AID1963985 (Molecular Pharmacology Branch, DTP, NCI, 2024).

The term IC50 denotes the concentration that inhibits the measured activity by half. As a reminder, the viability, T/C is the ratio of treated to control.

In the assay the test system is 252836-082-R-J2-PDC tumor spheroids, viability. Briefly: Anticancer human tumor 252836-082-R-J2-PDC patient-derived head and neck squamous cell carcinoma cell line growth inhibition [PI3K]. The following applies: spheroids with HUVEC and MSC; for viability, T/C: stronger effect = lower value. The essentials:
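Tumor cells were combined with HUVEC and MSCs into spheroids, then dosed with PI3K-inhibitor combinations over half-log ranges capped near clinical Cmax or 10 microM.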

The mark [1] stands for this setting: curve of first compound, second compound 0.0316 µM.
The mark [2] stands for this setting: curve of first compound, second compound 0.1 µM.
[3] abbreviates: curve of first compound, second compound 0.316 µM.
The mark [4] stands for this setting: curve of first compound, second compound 1 µM.
Where [5] appears, read: second compound 0.0316 µM, first compound 0.0316 µM.
[6] abbreviates: second compound 0.0316 µM, first compound 0.1 µM.
The mark [7] stands for this setting: second compound 0.0316 µM, first compound 0.316 µM.
[8] abbreviates: second compound 0.0316 µM, first compound 1 µM.
Setting [9] is: second compound 0.0316 µM, first compound 3.16 µM.
Where [10] appears, read: second compound 0.0316 µM, first compound 10 µM.
[11] abbreviates: second compound 0.1 µM, first compound 0.0316 µM.
[12] abbreviates: second compound 0.1 µM, first compound 0.1 µM.
Where [13] appears, read: second compound 0.1 µM, first compound 0.316 µM.
[14] abbreviates: second compound 0.1 µM, first compound 1 µM.
The mark [15] stands for this setting: second compound 0.1 µM, first compound 3.16 µM.
[16] abbreviates: second compound 0.1 µM, first compound 10 µM.
Setting [17] is: second compound 0.316 µM, first compound 0.0316 µM.
Where [18] appears, read: second compound 0.316 µM, first compound 0.1 µM.
Where [19] appears, read: second compound 0.316 µM, first compound 0.316 µM.
The mark [20] stands for this setting: second compound 0.316 µM, first compound 1 µM.
The mark [21] stands for this setting: second compound 0.316 µM, first compound 3.16 µM.
Where [22] appears, read: second compound 0.316 µM, first compound 10 µM.
Where [23] appears, read: second compound 1 µM, first compound 0.0316 µM.
The mark [24] stands for this setting: second compound 1 µM, first compound 0.1 µM.
Where [25] appears, read: second compound 1 µM, first compound 0.316 µM.
The mark [26] stands for this setting: second compound 1 µM, first compound 1 µM.
Where [27] appears, read: second compound 1 µM, first compound 3.16 µM.
The mark [28] stands for this setting: second compound 1 µM, first compound 10 µM.
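Note: spheroids exposed to agents for seven days before readout.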
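Throughout, for viability, T/C: percent of vehicle DMSO control viability so 100% = untreated growth.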

For `Cn1ncc(Cl)c1-c1cc(C(=O)NC(CN)Cc2cccc(F)c2)sc1Cl` (centres undefined) + CC(Nc1ncnc2nc[nH]c12)c1cc2cccc(Cl)c2c(=O)n1-c1ccccc1, the IC50 was found to be 642 nM under setting [1]; 713 nM under setting [2]; 496 nM under setting [3]; 623 nM under setting [4]; 538 nM (curve of first compound, second compound 3.16 µM); 273 nM (curve of first compound, second compound 10 µM). For the same compound, the viability, T/C was 90.3% under setting [5]; 65% under setting [6]; 63.8% under setting [7]; 44.5% under setting [8]; 30% under setting [9]; 12.1% under setting [10]. Further, the viability, T/C was 100% under setting [11]; 81% under setting [12]; 59.7% under setting [13]; 43.9% under setting [14]; 33% under setting [15]; 12.2% under setting [16]. In addition, the viability, T/C runs as follows: under setting [17], 80.9%; under setting [18], 70.3%; under setting [19], 56.2%; under setting [20], 38.8%; under setting [21], 28.2%; under setting [22], 12%. In addition, the viability, T/C runs as follows: under setting [23], 84%; under setting [24], 80.4%; under setting [25], 58.3%; under setting [26], 40.7%; under setting [27], 29.5%; under setting [28], 13%. Moreover, the viability, T/C is, setting by setting: (second compound 3.16 µM, first compound 0.0316 µM) 76.5%; (second compound 3.16 µM, first compound 0.1 µM) 71.8%; (second compound 3.16 µM, first compound 0.316 µM) 53.8%; (second compound 3.16 µM, first compound 1 µM) 43.3%; (second compound 3.16 µM, first compound 3.16 µM) 27.8%; (second compound 3.16 µM, first compound 10 µM) 15.5%. Also, the viability, T/C is, setting by setting: (second compound 10 µM, first compound 0.0316 µM) 57%; (second compound 10 µM, first compound 0.1 µM) 60.9%; (second compound 10 µM, first compound 0.316 µM) 49.3%; (second compound 10 µM, first compound 1 µM) 30.7%; (second compound 10 µM, first compound 3.16 µM) 27%; (second compound 10 µM, first compound 10 µM) 14.1%.

Regarding `CNC(=O)c1ccc(N2C(=S)N(c3ccc(C#N)c(C(F)(F)F)c3)C(=O)C2(C)C)cc1F`, the viability, T/C was 92.5% [middle of 4 runs] (compound 0.1 µM); 105% [middle of 4 runs] (compound 0.316 µM); 96.4% [middle of 4 runs] (compound 1 µM); 94.9% [middle of 4 runs] (compound 3.16 µM); 94.5% [middle of 4 runs] (compound 10 µM). Besides, the concentration for half-maximal inhibition (IC50) (curve of compound) was greater than 10000 nM.

Take `CC1(C)CCC(CN2CCN(c3ccc(C(=O)NS(=O)(=O)c4ccc(NCC5CCOCC5)c([N+](=O)[O-])c4)c(Oc4cnc5[nH]ccc5c4)c3)CC2)=C(c2ccc(Cl)cc2)C1`: the viability, T/C runs as follows: (compound 0.0316 µM) 97.7% [middle of 4 runs]; (compound 0.1 µM) 99.2% [middle of 4 runs]; (compound 0.316 µM) 100% [middle of 4 runs]; (compound 1 µM) 96% [middle of 4 runs].

As to `CC(Cn1ccc(-c2ccc(C#N)c(Cl)c2)n1)NC(=O)c1cc(C(C)O)[nH]n1` (centres undefined) + COc1c(OCCCN2CCOCC2)ccc2c3n(c(=NC(=O)c4cnc(N)nc4)nc12)CCN3, the 50% inhibitory concentration (IC50) (curve of first compound, second compound 0.00316 µM) is greater than 10000 nM; the half-inhibitory concentration (IC50) (curve of first compound, second compound 0.01 µM) was greater than 10000 nM; the IC50 under setting [1] was greater than 10000 nM; the concentration for half-maximal inhibition (IC50) under setting [2] is less than 31.6 nM; the half-inhibitory concentration (IC50) under setting [3] is less than 31.6 nM; the IC50 under setting [4] is less than 31.6 nM. Further, the viability, T/C runs as follows: (second compound 0.00316 µM, first compound 0.0316 µM) 102%; (second compound 0.00316 µM, first compound 0.1 µM) 90.5%; (second compound 0.00316 µM, first compound 0.316 µM) 101%; (second compound 0.00316 µM, first compound 1 µM) 94.4%; (second compound 0.00316 µM, first compound 3.16 µM) 91.4%; (second compound 0.00316 µM, first compound 10 µM) 84.9%. In addition, the viability, T/C by setting is: (second compound 0.01 µM, first compound 0.0316 µM) 81.7%; (second compound 0.01 µM, first compound 0.1 µM) 72.4%; (second compound 0.01 µM, first compound 0.316 µM) 87.2%; (second compound 0.01 µM, first compound 1 µM) 93.3%; (second compound 0.01 µM, first compound 3.16 µM) 93%; (second compound 0.01 µM, first compound 10 µM) 68.9%. The viability, T/C is 65.3% under setting [5]; 62.8% under setting [6]; 62.6% under setting [7]; 63.9% under setting [8]; 68.3% under setting [9]; 56.1% under setting [10]. Moreover, the viability, T/C under setting [11] was 35.3%; the viability, T/C under setting [12] was 43.5%; the viability, T/C under setting [13] was 36.6%; the viability, T/C under setting [14] is 45.3%; the viability, T/C under setting [15] is 35.6%; the viability, T/C under setting [16] is 41.4%. Moreover, the viability, T/C is 15.6% under setting [17]; 15.8% under setting [18]; 18.3% under setting [19]; 20.3% under setting [20]; 16.3% under setting [21]; 16.5% under setting [22]. Further, the viability, T/C is 5.58% under setting [23]; 5.76% under setting [24]; 4.24% under setting [25]; 4.31% under setting [26]; 6.92% under setting [27]; 5.37% under setting [28].
